Results reported in patent US6858707B1, “Hypersensitive response elicitor fragments which are active but do not elicit a hypersensitive response” (EDEN Bioscience Corporation, priority 1998, dated 2005).
Where “and” joins values, the source holds several entries; their conditions need not be identical. Identical values can stand only once.

Legend:
[1] = tested on: TMV; assay: Induction of systemic acquired resistance (SAR), TMV lesions on tobacco; format: in vivo, Nicotiana tabacum; settings: oligopeptides, Table 5; reduction in TMV lesions vs buffer control
[2] = tested on: tomato (Lycopersicon spp. cv. Marglobe); assay: Induction of growth enhancement (GE/PGE), tomato seed soak; format: in vivo; settings: for PGE ht>buffer: oligopeptides, Table 5, tomato height vs buffer
Experimental: Sixty tomato (Lycopersicon spp. cv. […] The next morning, the sixty seeds were sewn in three pots and 12-15 days later and again 18-20 days later the heights of the 10 tallest tomato plants per pot were measured and compared with the heights of the control plants treated only with phosphate buffer. Analyses were done on the heights to determine if there was a significant difference in the height of the plants treated with the truncated proteins compared with the buffer control, and thereby determine whether the proteins induced growth enhancement.

[3] = tested on: tobacco and other tested plants; assay: 13 amino acid peptide: HR in tobacco and other tested plants; format: in vivo
[4] = tested on: tomato seeds (variety, Marglobe); assay: 13 amino acid peptide: tomato seedling growth after seed soak; format: in vivo
Experimental: The synthesized peptide was resuspended in 10 ml of 5 mM potassium phosphate buffer and, then, diluted to 1 and 100 ng/ml with the same buffer. About 100 tomato seeds (variety, Marglobe) were submerged in 20 ml of peptide solution overnight. The soaked seeds were planted in an 8 inch pot with artificial soil. Seeds soaked in the buffer without the peptide were used as a control. After seedlings emerged and the first two true leaves fully expanded, the height of the tomato seedlings was recorded.

[5] = tested on: parsley cells; settings: H+/Ca2+ influxes, K+/Cl− effluxes, active oxygen production, SAR gene induction, phytoalexin accumulation; cited from earlier work
[6] = tested on: tobacco (Nicotiana tabacum v. Xanthi) leaves; assay: Induction of HR in tobacco by hrpN truncated proteins; format: in vivo; settings: large scale purified protein; concentration down to which HR is elicited in tobacco; — = no HR
Experimental: A 1.5 ml aliquot from the 50 ml cultures grown for small scale purification of the truncated proteins was centrifuged at 14,000 rpm for four minutes and re-suspended in an equal volume of 5 mM potassium phosphate buffer, pH 6.8. The cell suspension was sonicated for ca. 30 seconds then diluted 1:2 and 1:10 with phosphate buffer. Both dilutions plus the neat cell lysate were infiltrated into the fourth to ninth leaves of 10-15 leaf tobacco plants by making a hole in single leaf panes and infiltrating the bacterial lysate into the intercellular leaf space using a syringe without a needle. The HR response was recorded 24-48 hr post infiltration. Tobacco (Nicotiana tabacum v. Xanthi) seedlings were grown in an environmental chamber at 20-25° C. with a photoperiod of 12-h light/12-h dark and ca. 40% RH. Cell lysate was used for the initial HR assays (in order to screen the truncated proteins for HR activity) as the small scale urea purification yielded very little protein which was denatured due to the purification process.
The full length positive control protein elicited HR down to only 5-7 μg/ml. […] This false HR was likely due to an affinity of the imidazole used in the purification process to bind to one or several of the background proteins, thereby not completely dialyzing out.

[7] = tested on: TMV; assay: Induction of systemic acquired resistance (SAR), TMV lesions on tobacco; format: in vivo, Nicotiana tabacum; settings: tobacco sprayed with 20 μg/ml; reduction in TMV lesions vs buffer control; listed as 19
Experimental: Three tobacco (Nicotiana tabacum cv. Xanthi) plants with 8-12 leaves (ca. 75 day old plants) were used in the assay. One leaf of the tobacco plants was covered up and the rest of the leaves were sprayed with ca. 50 ml of a 20 μg/ml solution of the truncated proteins diluted with 5 mM potassium phosphate buffer. Five to seven days later two leaves (the unsprayed leaf and the sprayed leaf opposite and just above the unsprayed leaf) were inoculated with 20 μl of a 1.8 μg/ml solution of TMV along with a pinch of diatomaceous earth by rubbing the mixture along the top surface of the leaves. The TMV entered the plants through tiny lesions made by the diatomaceous earth. Ca. 3-4 days post TMV inolucation, the number of TMV lesions was counted on both leaves compared with the number of lesions on the negative control buffer treated leaves. Analyses were done to determine the efficacy of reducing the number of TWV lesions by the protein fragents compared to the buffer control. Percentage of efficacy was calculated as: Reduction in TMV lesions (% efficacy)=100×(1−mean # of lesions on treated leaves/mean # of lesions on buffer control leaves).

[8] = cited from earlier work
[9] = tested on: tomato; assay: HrpZ fragments: growth enhancement (PGE); format: in vivo; settings: % greater height than buffer sprayed plants; 152-294 preparation diluted 40-fold, 190-294 diluted 8-fold
Experimental: To test whether non-HR eliciting fragments derived from HrpZ, the hypersensitive response elicitor from Pseudomonas syringae pv. syringae, is able to induce disease resistance, several fragment constructs were made and the expressed fragment proteins were tested for HR elicitation and disease resistance induction in tobacco and growth promotion in tomato.
(§1) The fragment preparations were then tested for inducing resistance to TMV and for growth enhancement. Due to the difference in concentration of the HrpZ fragments, the 152-294 preparation was diluted 40-fold and the 190-294 preparation was diluted 8-fold. […] In contrast, the 152-294 aa fragment reduced the number of TMV lesions by only 55%. As also shown in Table 8, plants treated with the 152-294 aa fragment grew 4.64% more than buffer treated plants, while plants treated with the 190-294 aa fragment grew 2.62% more than the buffer treated plants.

[10] = tested on: tobacco leaves; assay: HR test of HrpZ fragment preparations in tobacco leaves; format: in vivo; design: key to HR elicitation: +, elicits HR in tobacco leaves; −, no HR in tobacco leaves
Experimental: Amino acid fragments 152-294 and 190-294 were chosen for further analysis and characterization. It was expected that the fragment 152-294 contained a domain that elicited the HR, while fragment 190-294 contained no domain that elicited the HR. The cultures were spun down, and the bacteria resuspended in 40 ml of 10 mM Tris pH 8.0. Twenty μl of antifoam and 40 μl of 200 mM PMSF were added, and the bacteria was sonicated to break open the cells. The bacterial debris was removed by centrifugation, and the supernatant was placed in a boiling water bath for 10 min. The precipitate was removed by centrifugation and the supernatant, a crude protein preparation, was retained for tests.
Fifteen μl of each supernatant was run on a gel and stained to determine if the protein was present. It was estimated that about five times as much of the 152-294 fragment was present as the 190-294 fragment. Several dilutions of each preparation were infiltrated into tobacco leaves on two plants for HR tests (Table 7).

[11] = tested on: TMV; assay: HrpZ fragments: induced resistance to TMV in tobacco; format: in vivo; settings: % reduction in TMV lesions in unsprayed leaf of tobacco; 152-294 preparation diluted 40-fold, 190-294 diluted 8-fold
Experimental: as §1

Molecule: oligo 150-179: synthesized oligopeptide, amino acids 150-179 of SEQ ID NO: 23 (STSDSSDPMQQLLKMFSEIMQSLFGDGQDG; listed as Erwinia amylovora)
- TMV efficacy [1]: 72.9%
- PGE ht>buffer [2]: 10.1%

Molecule: oligo 137-166: synthesized oligopeptide, amino acids 137-166 of SEQ ID NO: 23 (STSQNDDSTSGTDSTSDSSDPMQQLLKMFS; listed as Erwinia amylovora)
- TMV efficacy [1]: 61.2%
- PGE ht>buffer [2]: 12.0%

Molecule: NH2-Val-Trp-Asn-Gln-Pro-Val-Arg-Gly-Phe-Lys-Val-Tyr-Glu-COOH (H-VWNQPVRGFKVYE-OH; listed as Phytophthora megasperma) [13 amino acid peptide, oligopeptide derived from the 42 kDa glycoprotein elicitor of Phytophthora megasperma]
- HR elicitation [3]: not able to elicit the HR
- % Change ([4]; height increase vs buffer, 100 ng/ml peptide): 12.6%
- Height of seedlings (cm) ([4]; individual tomato seedlings, seeds soaked overnight in 100 ng/ml peptide, listed as Peptide Solution): 6.5 cm (5×) and 6.0 cm (5×)
- Average (cm) ([4]; mean seedling height, 100 ng/ml peptide): 6.25 cm
- defense response in parsley cells [5]: sufficient to elicit a complex defense response

Molecule: oligo 137-156: synthesized oligopeptide, amino acids 137-156 of SEQ ID NO: 23 (STSQNDDSTSGTDSTSDSSD; listed as Erwinia amylovora)
- TMV efficacy [1]: −87.7%
- PGE ht>buffer [2]: 7.4%

Molecule: oligo 121-150: synthesized oligopeptide, amino acids 121-150 of SEQ ID NO: 23 (TTSTTNSPLDQALGINSTSQNDDSTSGTDS; listed as Erwinia amylovora)
- TMV efficacy [1]: 60.0%
- PGE ht>buffer [2]: 17.3%

B1: Fragment 19: amino acids 137-204 of SEQ ID NO: 23, internal fragment (protein, listed as Erwinia amylovora)
chain: STSQNDDSTSGTDSTSDSSDPMQQLLKMFSEIMQSLFGDGQDGTQGSSSGGKQPTEGEQNAYKKGVTD
- HR titer [6]: 3.5 µg/mL
- Efficacy of TMV control [7]: 89% and 77%
- PGE ht>buffer @10 μg/ml ([2]; tomato seeds soaked overnight at 10 μg/ml, height vs buffer control, >10% needed to pass): 11%
- PGE ht>buffer @20 μg/ml ([2]; tomato seeds soaked overnight at 20 μg/ml, height vs buffer control, >10% needed to pass): 13%

B2: hypersensitive response elicitor polypeptide or protein derived from Erwinia amylovora: elicitor from Erwinia amylovora, amino acid sequence SEQ ID NO: 23 (protein, listed as Erwinia amylovora)
chain: MSLNTSGLGASTMQISIGGAGGNNGLLGTSRQNAGLGGNSALGLGGGNQNDTVNQLAGLLTGMMMMMSMMGGGGLMGGGLGGGLGNGLGGSGGLGEGLSNALNDMLGGSLNTLGSKGGNNTTSTTNSPLDQALGINSTSQNDDSTSGTDSTSDSSDPMQQLLKMFSEIMQSLFGDGQDGTQGSSSGGKQPTEGEQNAYKKGVTDALSGLMGNGLSQLLGNGGLGGGQGGNAGTGLDGSSLGGKGLQNLSGPVDYQQLGNAVGTGIGMKAGIQALNDIGTHRHSSTRSFVNKGDRAMAKEIGQFMDQYPEVFGKPQYQKGPGQEVKTDDKSWAKALSKPDDDGMTPASMEQFNKAKGMIKRPMAGDTGNGNLQARGAGGSSLGIDAMMAGDAINNMALGKLGAA
- heat stable at 100° C. for [8]: at least 10 minutes

B3: HrpZ Fragment 190-294: amino acids 190-294 of HrpZ (SEQ ID NO: 31), calmodulin-binding peptide fusion, crude preparation (protein, listed as Pseudomonas syringae)
chain: DIIGQQLGNQQSDAGSLAGTGGGLGTPSSFSNNSSVMGDPLIDANTGPGDSGNTRGEAGQLIGELIDRGLQSVLAGGGLGTPVNTPQTGTSANGGQSAQDLDQLL
modifications: calmodulin-binding peptide fusion
- PGE(% > buffer ht) [9]: 2.62%
- HR elicitation (in words) ([10]; dilutions infiltrated into tobacco leaves): did not
- HR test, dilution 1:2 ([10]; preparation diluted 1:2 with MilliQ water, result for each of two plants): −,−
- HR test, dilution 1:5 ([10]; preparation diluted 1:5 with MilliQ water, result for each of two plants): −,−
- HR test, dilution 1:25 ([10]; preparation diluted 1:25 with MilliQ water, result for each of two plants): −,−
- HR test, dilution 1:125 ([10]; preparation diluted 1:125 with MilliQ water, result for each of two plants): −,−
- HR elicitation ([10]; tobacco leaves): −
- TMV (% efficacy) [11]: 85% and 85.25%
